The target in one assay is T1, RON (Homo sapiens, UniProt Q04912).
T1 sequence (Q04912 913-1400): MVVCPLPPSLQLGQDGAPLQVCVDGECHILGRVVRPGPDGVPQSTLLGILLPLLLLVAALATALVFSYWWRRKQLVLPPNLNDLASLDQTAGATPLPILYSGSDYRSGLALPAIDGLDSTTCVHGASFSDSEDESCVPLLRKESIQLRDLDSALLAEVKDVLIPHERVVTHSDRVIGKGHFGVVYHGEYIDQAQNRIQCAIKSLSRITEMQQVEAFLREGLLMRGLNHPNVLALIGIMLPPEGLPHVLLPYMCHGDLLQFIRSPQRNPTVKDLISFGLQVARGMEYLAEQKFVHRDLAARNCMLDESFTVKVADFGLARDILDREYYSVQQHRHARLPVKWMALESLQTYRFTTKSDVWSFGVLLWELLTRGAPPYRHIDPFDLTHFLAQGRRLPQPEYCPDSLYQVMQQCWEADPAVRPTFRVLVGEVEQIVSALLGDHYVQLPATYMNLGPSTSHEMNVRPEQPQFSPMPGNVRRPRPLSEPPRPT
The assay can be described thus: sfRON cell mechanistic assay (HeLa), phosphorylated RON ELISA. The class given is cell-based. Particulars: HeLa cells transfected with sfRON; inhibition of phosphorylated RON; four hours incubation; at least duplicate experiments; read-out: sfRON mech IC50. A digest of the protocol: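 HeLa cells transiently transfected with sfRON plasmid, then exposed 4 h at 37 °C to a 6-point compound series (typically 10 μM to 3 nM, 0.5% DMSO). Phospho-RON (pY1238/1239) in lysates measured by sandwich ELISA with luminescence. IC50 from 4-parameter fit of percent-of-DMSO-control data, at least duplicate runs.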
For orientation: ELISA stands for enzyme-linked immunosorbent assay.

The next assay relates to MKN45 cells. The assay can be described thus: MKN45 cell proliferation assay (CellTiter-Glo). The assay is classed as cell-based. Particulars: Homo sapiens, MKN-45, 72 h; MKN45 cell line; 3 days incubation; at least duplicate experiments; read-out: Prolif. IC50.

Where only a bound is given, the exact number is not on record here.

On to `COc1ccc(F)c(Cl)c1[C@@H](C)c1c[nH]c2ncc(-c3c[nH]nc3C)cc12` [Example 1, 3-[(1S)-1-(2-Chloro-3-fluoro-6-methoxyphenyl)ethyl]-5-(3-methyl-1H-pyrazol-4-yl)-1H-pyrrolo[2,3-b]pyridine], for which the IC50 at RON was 200 to 1000 nM; in the assay with MKN45 cells it was no more than 50 nM.
Consider `COc1ccc(F)c(Cl)c1[C@@H](C)c1c[nH]c2ncc(-c3cn(C)nc3C)cc12` [Example 2, 3-[(1S)-1-(2-Chloro-3-fluoro-6-methoxyphenyl)ethyl]-5-(1,3-dimethyl-1H-pyrazol-4-yl)-1H-pyrrolo[2,3-b]pyridine], for which the IC50 at RON was in the range of 200 to 1000 nM; with MKN45 cells, 50 to 200 nM.
Turning to `COc1ccc(F)c(Cl)c1[C@@H](C)c1c[nH]c2ncc(-c3cnn(C)c3C)cc12` [Example 3, 3-[(1S)-1-(2-Chloro-3-fluoro-6-methoxyphenyl)ethyl]-5-(1,5-dimethyl-1H-pyrazol-4-yl)-1H-pyrrolo[2,3-b]pyridine], the IC50 on RON was 200 to 1000 nM; with MKN45 cells, no more than 50 nM.
Turning to `COc1ccc(F)c(Cl)c1[C@@H](C)c1c[nH]c2ncc(-c3c(C)nn(C)c3C)cc12` [Example 4, 3-[(1S)-1-(2-Chloro-3-fluoro-6-methoxyphenyl)ethyl]-5-(1,3,5-trimethyl-1H-pyrazol-4-yl)-1H-pyrrolo[2,3-b]pyridine], the results for the IC50 on RON and with MKN45 cells were greater than 1000 nM and 200 to 1000 nM, respectively.
With `COc1ccc(F)c(Cl)c1[C@@H](C)c1c[nH]c2ncc(-c3c(C)nn(CC(C)(C)O)c3C)cc12` [Example 5, 1-(4-{3-[(1S)-1-(2-Chloro-3-fluoro-6-methoxyphenyl)ethyl]-1H-pyrrolo[2,3-b]pyridin-5-yl}-3,5-dimethyl-1H-pyrazol-1-yl)-2-methylpropan-2-ol], the IC50 was greater than 1000 nM on RON and 50 to 200 nM in the assay on MKN45 cells.
As to `COc1ccc(F)c(Cl)c1[C@@H](C)c1c[nH]c2ncc(-c3c(C)nn([C@H]4CC[C@H](O)CC4)c3C)cc12` [Example 6, trans-4-(4-{3-[(1S)-1-(2-Chloro-3-fluoro-6-methoxyphenyl)ethyl]-1H-pyrrolo[2,3-b]pyridin-5-yl}-3,5-dimethyl-1H-pyrazol-1-yl)cyclohexanol], the results for the IC50 at RON and with MKN45 cells were 200 to 1000 nM and no more than 50 nM, respectively.
As for `COc1ccc(F)c(Cl)c1[C@@H](C)c1c[nH]c2ncc(-c3cn(CC(C)(C)O)nc3C)cc12` [Example 7, 1-(4-{3-[(1S)-1-(2-Chloro-3-fluoro-6-methoxyphenyl)ethyl]-1H-pyrrolo[2,3-b]pyridin-5-yl}-3-methyl-1H-pyrazol-1-yl)-2-methylpropan-2-ol], the IC50 at RON was 200 to 1000 nM; in the assay with MKN45 cells, no more than 50 nM.
Regarding `COc1ccc(F)c(Cl)c1[C@@H](C)c1c[nH]c2ncc(-c3cnn(CC(C)(C)O)c3C)cc12` [Example 8, 1-(4-{3-[(1S)-1-(2-Chloro-3-fluoro-6-methoxyphenyl)ethyl]-1H-pyrrolo[2,3-b]pyridin-5-yl}-5-methyl-1H-pyrazol-1-yl)-2-methylpropan-2-ol], the IC50 at RON was 200 to 1000 nM; in the assay with MKN45 cells, no more than 50 nM.
Take `COc1ccc(F)c(Cl)c1[C@@H](C)c1c[nH]c2ncc(-c3cnn(C[C@H](O)CO)c3C)cc12` [Example 10, (2S)-3-(4-{3-[(1S)-1-(2-Chloro-3-fluoro-6-methoxyphenyl)ethyl]-1H-pyrrolo[2,3-b]pyridin-5-yl}-5-methyl-1H-pyrazol-1-yl)propane-1,2-diol]: the IC50 was no more than 200 nM on RON and no more than 50 nM with MKN45 cells.
Turning to `CCc1c(-c2cnc3[nH]cc([C@H](C)c4c(OC)ccc(F)c4Cl)c3c2)cnn1CC(C)(C)O` [Example 11, 1-(4-{3-[(1S)-1-(2-Chloro-3-fluoro-6-methoxyphenyl)ethyl]-1H-pyrrolo[2,3-b]pyridin-5-yl}-5-ethyl-1H-pyrazol-1-yl)-2-methylpropan-2-ol], the IC50 is 200 to 1000 nM on RON and 50 to 200 nM in the assay on MKN45 cells.
In the case of `CCc1nn(CC(C)(C)O)cc1-c1cnc2[nH]cc([C@H](C)c3c(OC)ccc(F)c3Cl)c2c1` [Example 12, 1-(4-{3-[(1S)-1-(2-Chloro-3-fluoro-6-methoxyphenyl)ethyl]-1H-pyrrolo[2,3-b]pyridin-5-yl}-3-ethyl-1H-pyrazol-1-yl)-2-methylpropan-2-ol], the figures for the IC50 on RON and with MKN45 cells were 200 to 1000 nM and 50 to 200 nM, respectively.
In the case of `COc1ccc(F)c(Cl)c1[C@@H](C)c1c[nH]c2ncc(-c3cnn([C@H]4CC[C@H](C(=O)N(C)C)CC4)c3C)cc12` [Example 14, Trans-4-(4-{3-[(1S)-1-(2-chloro-3-fluoro-6-methoxyphenyl)ethyl]-1H-pyrrolo[2,3-b]pyridin-5-yl}-5-methyl-1H-pyrazol-1-yl)-N,N-dimethylcyclohexanecarboxamide], the IC50 at RON is 200 to 1000 nM; with MKN45 cells, no more than 50 nM.
For the compound `CNC(=O)[C@H]1CC[C@H](n2ncc(-c3cnc4[nH]cc([C@H](C)c5c(OC)ccc(F)c5Cl)c4c3)c2C)CC1` [Example 17, trans-4-(4-{3-[(1S)-1-(2-Chloro-3-fluoro-6-methoxyphenyl)ethyl]-1H-pyrrolo[2,3-b]pyridin-5-yl}-5-methyl-1H-pyrazol-1-yl)-N-methyl cyclohexanecarboxamide], the IC50 on RON was no more than 200 nM; with MKN45 cells, no more than 50 nM.
As for `COc1ccc(F)c(Cl)c1[C@@H](C)c1c[nH]c2ncc(-c3cnn([C@H]4CC[C@H](C(N)=O)CC4)c3C)cc12` [Example 18, trans-4-(4-{3-[(1S)-1-(2-chloro-3-fluoro-6-methoxyphenyl)ethyl]-1H-pyrrolo[2,3-b]pyridin-5-yl}-5-methyl-1H-pyrazol-1-yl)cyclohexanecarboxamide], the IC50 at RON was 200 to 1000 nM; in the assay on MKN45 cells, no more than 50 nM.
In the same order, the values of `COc1ccc(F)c(Cl)c1[C@@H](C)c1c[nH]c2ncc(-c3cn([C@H]4CC[C@H](C(N)=O)CC4)nc3C)cc12` [Example 19, trans-4-(4-{3-[(1S)-1-(2-Chloro-3-fluoro-6-methoxyphenyl)ethyl]-1H-pyrrolo[2,3-b]pyridin-5-yl}-3-methyl-1H-pyrazol-1-yl)cyclohexanecarboxamide] are no more than 200 nM and no more than 50 nM.
Consider `CNC(=O)[C@H]1CC[C@H](n2cc(-c3cnc4[nH]cc([C@H](C)c5c(OC)ccc(F)c5Cl)c4c3)c(C)n2)CC1` [Example 22, trans-4-(4-{3-[(1S)-1-(2-Chloro-3-fluoro-6-methoxyphenyl)ethyl]-1H-pyrrolo[2,3-b]pyridin-5-yl}-3-methyl-1H-pyrazol-1-yl)-N-methylcyclohexanecarboxamide], for which the IC50 on RON is no more than 200 nM; in the assay with MKN45 cells, no more than 50 nM.
In the same order, the values of `COc1ccc(F)c(Cl)c1[C@@H](C)c1c[nH]c2ncc(-c3cnn([C@H]4CC[C@H](O)CC4)c3C)cc12` [Example 27, trans-4-(4-{3-[(1S)-1-(2-Chloro-3-fluoro-6-methoxyphenyl)ethyl]-1H-pyrrolo[2,3-b]pyridin-5-yl}-5-methyl-1H-pyrazol-1-yl)cyclohexanol] are 200 to 1000 nM and no more than 50 nM.
The corresponding values for `COc1ccc(F)c(Cl)c1[C@@H](C)c1c[nH]c2ncc(-c3cnn([C@@H]4C[C@@H](O)[C@@H](O)C4)c3C)cc12` [Example 31, (1R,2S,4S)-4-(4-{3-[(1S)-1-(2-Chloro-3-fluoro-6-methoxyphenyl)ethyl]-1H-pyrrolo[2,3-b]pyridin-5-yl}-5-methyl-1H-pyrazol-1-yl)cyclopentane-1,2-diol] are 200 to 1000 nM and no more than 50 nM.
Take `COc1ccc(F)c(Cl)c1[C@@H](C)c1c[nH]c2ncc(-c3cn([C@@H]4C[C@@H](O)[C@@H](O)C4)nc3C)cc12` [Example 32, (1R,2S,4S)-4-(4-{3-[(1S)-1-(2-Chloro-3-fluoro-6-methoxyphenyl)ethyl]-1H-pyrrolo[2,3-b]pyridin-5-yl}-3-methyl-1H-pyrazol-1-yl)cyclopentane-1,2-diol]: the results for the IC50 at RON and with MKN45 cells were no more than 200 nM and no more than 50 nM, respectively.
Take `COc1ccc(F)c(Cl)c1[C@@H](C)c1c[nH]c2ncc(-c3c(C)nn([C@@H]4C[C@@H](O)[C@@H](O)C4)c3C)cc12` [Example 33, (1R,2S,4S)-4-(4-{3-[(1S)-1-(2-Chloro-3-fluoro-6-methoxyphenyl)ethyl]-1H-pyrrolo[2,3-b]pyridin-5-yl}-3,5-dimethyl-1H-pyrazol-1-yl)cyclopentane-1,2-diol]: the IC50 at RON is 200 to 1000 nM; in the assay on MKN45 cells, no more than 50 nM.
On to `COc1ccc(F)c(Cl)c1[C@@H](C)c1c[nH]c2ncc(-c3cn(C[C@@H](O)CO)nc3C(F)(F)F)cc12` [Example 34, (2R)-3-[4-{3-[(1S)-1-(2-Chloro-3-fluoro-6-methoxyphenyl)ethyl]-1H-pyrrolo[2,3-b]pyridin-5-yl}-3-(trifluoromethyl)-1H-pyrazol-1-yl]propane-1,2-diol], for which the IC50 at RON is greater than 1000 nM; with MKN45 cells, 50 to 200 nM.
Regarding `COc1ccc(F)c(Cl)c1[C@@H](C)c1c[nH]c2ncc(-c3cnn(C[C@@H](O)CO)c3C(F)(F)F)cc12` [Example 35, (2R)-3-[4-{3-[(1S)-1-(2-Chloro-3-fluoro-6-methoxyphenyl)ethyl]-1H-pyrrolo[2,3-b]pyridin-5-yl}-5-(trifluoromethyl)-1H-pyrazol-1-yl]propane-1,2-diol], the IC50 at RON is greater than 1000 nM; in the assay with MKN45 cells it was 50 to 200 nM.

Usually IC50 stands for the point on the concentration scale where inhibition reaches its midpoint.

The values above are taken from US8445510B2, “Fused bicyclic kinase inhibitors” (OSI Pharmaceuticals, LLC, priority 2011, dated 2013).
